This passage reports IC50 results from patent US9725449B2, “Tricyclic compounds as anticancer agents” (BRISTOL-MYERS SQUIBB COMPANY, priority 2015, dated 2017).

In the test the target is BRD4 (Homo sapiens, UniProt O60885). The experiment in a line: Time resolved fluorescence resonance energy transfer (TR-FRET) binding assay, bromodomain BRD4. Conditions: one of the FRET assays described; read-out: FRET BRD4 IC50. For orientation: TR-FRET usually uses a lanthanide donor and a delayed reading to cut background.

Regarding `[2H]C([2H])([2H])c1nnn(C)c1-c1cnc2c3ccc(C(C)(C)O)nc3n([C@H](c3ccccc3)C3CCOCC3)c2c1` [Example 175, 2-{5-[4-(^2H3)Methyl-1-methyl-1H-1,2,3-triazol-5-yl]-8-[(S)-oxan-4-yl(phenyl)methyl]-3,8,10-triazatricyclo[7.4.0.0^2,^7]trideca-1(9),2(7),3,5,10,12-hexaen-11-yl}propan-2-ol], the IC50 – broadly, the concentration needed to halve the response being measured – was less than 10 nM.

As to `Cc1nnn(C)c1-c1cnc2c3ccc(N4CCC(C)(O)CC4)nc3n([C@H](c3ccccc3)C3CCOCC3)c2c1` [Example 180, 1-[5-(Dimethyl-1H-1,2,3-triazol-5-yl)-8-[(S)-oxan-4-yl(phenyl)methyl]-3,8,10-triazatricyclo[7.4.0.0^2,^7]trideca-1(9),2(7),3,5,10,12-hexaen-11-yl]-4-methylpiperidin-4-ol], the IC50 was less than 1 nM.

On to `[2H]C([2H])([2H])c1nnn(C)c1-c1cnc2c3ccc(NCCc4nnn[nH]4)nc3n([C@H](c3ccccc3)C3CCOCC3)c2c1` [Example 295, 5-[4-(^2H3)Methyl-1-methyl-1H-1,2,3-triazol-5-yl]-8-[(S)-oxan-4-yl(phenyl)methyl]-N-[2-(1H-1,2,3,4-tetrazol-5-yl)ethyl]-3,8,10-triazatricyclo[7.4.0.0^2,^7]trideca-1(9),2(7),3,5,10,12-hexaen-11-amine], for which the 50% inhibitory concentration (IC50) was less than 1 nM.

Consider `[2H]C([2H])([2H])c1nnn(C)c1-c1cnc2c3ccc(N4C[C@@H](C)N[C@@H](C)C4)nc3n([C@H](c3ccccc3)C3CCOCC3)c2c1` [Example 252, 11-[(3R,5S)-3,5-Dimethylpiperazin-1-yl]-5-[4-(^2H3)methyl-1-methyl-1H-1,2,3-triazol-5-yl]-8-[(S)-oxan-4-yl(phenyl)methyl]-3,8,10-triazatricyclo[7.4.0.0^2,^7]trideca-1(13),2(7),3,5,9,11-hexaene], for which the IC50 was less than 1 nM.

On to “2-{11-Chloro-5-[4-(^2H3)methyl-1-methyl-1H-1,2,3-triazol-5-yl]-8-[(S)-oxan-4-yl(phenyl)methyl]-3,8,12-triazatricyclo[7.4.0.0^2,^7]trideca-1(13),2(7),3,5,9,11-hexaen-13-yl}propan-2-ol [Example 293]”, for which the 50% inhibitory concentration (IC50) was less than 10 nM.

With `[2H]C([2H])([2H])c1nnn(C)c1-c1cnc2c3c(OCC)ncc(S(C)(=O)=O)c3n([C@H](c3ccccc3)C3CCOCC3)c2c1` [Example 56, 13-Ethoxy-10-methanesulfonyl-5-[4-(^2H3)methyl-1-methyl-1H-1,2,3-triazol-5-yl]-8-[(S)-oxan-4-yl(phenyl)methyl]-3,8,12-triazatricyclo[7.4.0.0^2,^7]trideca-1(13),2(7),3,5,9,11-hexaene], the IC50 is less than 1 nM.

As to `Cc1nnn(C)c1-c1cnc2c3ccc(C(C)(C)O)nc3n([C@H](c3ccccc3)C3CCOCC3)c2c1` [Example 174, 2-[5-(Dimethyl-1H-1,2,3-triazol-5-yl)-8-[(S)-oxan-4-yl(phenyl)methyl]-3,8,10-triazatricyclo[7.4.0.0^2,^7]trideca-1(9),2(7),3,5,10,12-hexaen-11-yl]propan-2-ol], the 50% inhibitory concentration (IC50) is less than 1 nM.

For the molecule `[2H]C([2H])([2H])c1nnn(C)c1-c1cnc2c3c(OCC4CC4)ncc(S(C)(=O)=O)c3n([C@H](c3ccccc3)C3CCC(F)(F)CC3)c2c1` [Example 94, 13-(Cyclopropylmethoxy)-8-[(S)-(4,4-difluorocyclohexyl)(phenyl)methyl]-10-methanesulfonyl-5-[4-(^2H3)methyl-1-methyl-1H-1,2,3-triazol-5-yl]-3,8,12-triazatricyclo[7.4.0.0^2,^7]trideca-1(13),2(7),3,5,9,11-hexaene], the IC50 was less than 10 nM.

`[2H]C([2H])([2H])c1nnn(C)c1-c1cnc2c3ccc(N4C[C@@H](C)O[C@@H](C)C4)nc3n([C@H](c3ccccc3F)C3CCOCC3)c2c1` [Example 237, 11-[(2R,6S)-2,6-Dimethylmorpholin-4-yl]-8-[(S)-(2-fluorophenyl)(oxan-4-yl)methyl]-5-[4-(^2H3)methyl-1-methyl-1H-1,2,3-triazol-5-yl]-3,8,10-triazatricyclo[7.4.0.0^2,^7]trideca-1(13),2(7),3,5,9,11-hexaene]: the 50% inhibitory concentration (IC50) is less than 1 nM.

Turning to `Cc1nnn(C)c1-c1cnc2c3c(S(C)(=O)=O)ncc(Cl)c3n([C@H](c3ccccc3)C3CCOCC3)c2c1` [Example 42, 10-Chloro-5-(dimethyl-1H-1,2,3-triazol-5-yl)-13-methanesulfonyl-8-[(S)-oxan-4-yl(phenyl)methyl]-3,8,12-triazatricyclo[7.4.0.0^2,^7]trideca-1(13),2(7),3,5,9,11-hexaene], the IC50 is less than 10 nM.

Turning to `COc1ccc(CNc2ccc3c4ncc(-c5c(C)nnn5C)cc4n([C@H](c4ccccc4)C4CCOCC4)c3n2)c(OC)c1` [Example 187, N-[(2,4-Dimethoxyphenyl)methyl]-5-(dimethyl-1H-1,2,3-triazol-5-yl)-8-[(S)-oxan-4-yl(phenyl)methyl]-3,8,10-triazatricyclo[7.4.0.0^2,^7]trideca-1(9),2(7),3,5,10,12-hexaen-11-amine], the IC50 was less than 10 nM.

With `COc1nc(Cl)cc2c1c1ncc(-c3c(C)nnn3C)cc1n2C(c1ncccc1O)C1CCOCC1` (stereo not shown) [Example 306, 2-({11-Chloro-13-methoxy-5-[4-(^2H3)methyl-1-methyl-1H-1,2,3-triazol-5-yl]-3,8,12-triazatricyclo[7.4.0.0^2,^7]trideca-1(9),2(7),3,5,10,12-hexaen-8-yl}(oxan-4-yl)methyl)pyridin-3-ol], the IC50 was less than 10 nM.

As for `[2H]C([2H])([2H])c1nnn(C)c1-c1cnc2c3c(OCCO)ncc(S(C)(=O)=O)c3n([C@H](c3ccccc3F)C3CCOCC3)c2c1` [Example 63, 2-({8-[(S)-(2-Fluorophenyl)(oxan-4-yl)methyl]-10-methanesulfonyl-5-[4-(^2H3)methyl-1-methyl-1H-1,2,3-triazol-5-yl]-3,8,12-triazatricyclo[7.4.0.0^2,^7]trideca-1(13),2(7),3,5,9,11-hexaen-13-yl}oxy)ethan-1-ol], the concentration for half-maximal inhibition (IC50) is less than 1 nM.

Take `[2H]C([2H])([2H])c1nnn(C)c1-c1cnc2c3c(OC)nc(C(C)(C)O)cc3n(C(c3ccccc3)C3CCC(F)(F)CC3)c2c1` (stereo not shown) [Example 346, 2-{8-[(4,4-Difluorocyclohexyl)(phenyl)methyl]-13-methoxy-5-[4-(^2H3)methyl-1-methyl-1H-1,2,3-triazol-5-yl]-3,8,12-triazatricyclo[7.4.0.0^2,^7]trideca-1(13),2(7),3,5,9,11-hexaen-11-yl}propan-2-ol]: the IC50 is less than 1 nM.

As for `Cc1nnn(C)c1-c1cnc2c3c(NS(=O)(=O)CC4CC4)ncc(S(C)(=O)=O)c3n([C@H](c3ccccc3)C3CCOCC3)c2c1` [Example 104, 1-Cyclopropyl-N-[5-(dimethyl-1H-1,2,3-triazol-5-yl)-10-methanesulfonyl-8-[(S)-oxan-4-yl(phenyl)methyl]-3,8,12-triazatricyclo[7.4.0.0^2,^7]trideca-1(13),2(7),3,5,9,11-hexaen-13-yl]methanesulfonamide], the IC50 is less than 10 nM.

Regarding `[2H]C([2H])([2H])c1nnn(C)c1-c1cnc2c3c(OC)nc(C(C)=O)cc3n([C@@H](c3ncccc3F)C3CCOCC3)c2c1` [Example 310, 1-{8-[(R)-(3-Fluoropyridin-2-yl)(oxan-4-yl)methyl]-13-methoxy-5-[4-(^2H3)methyl-1-methyl-1H-1,2,3-triazol-5-yl]-3,8,12-triazatricyclo[7.4.0.0^2,^7]trideca-1(9),2(7),3,5,10,12-hexaen-11-yl}ethan-1-one], the IC50 is less than 10 nM.
